These results are taken from PubChem BioAssay (NCI).

The structures appear in SMILES notation.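 Each compound was tested at five concentrations against cells in 96-well plates for 48 hours. TGI: total growth inhibition.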 Where only a bound is given, the exact number is not on record here.

The first assay concerns T-47D breast. Description: NCI-60 cell line screen, 48 h.
With `Cc1ccc(S(=O)(=O)N/N=C/C2(c3ccccc3)c3ccccc3-c3ccccc32)cc1`, the TGI is 44 µM.

The molecule `O=C(/C=C/c1ccc2c(c1)OCO2)CC(=O)C(=O)c1c[nH]c2ccccc12` displayed a TGI of 62.1 µM.

Regarding `Cc1cc(O)c(/C=N/C(=S)NCc2ccccc2)c(=O)o1`, the TGI is above 100 µM.

Another assay concerns DU-145 prostate. Description: NCI-60 cell line screen, 48 h.
`O=C1NCCN1/N=C/c1c(Cl)n(-c2ccccc2)c2ccccc12` gave a TGI of 48.4 µM.

Regarding `Cc1ccc(S(=O)(=O)N/N=C/C2(c3ccccc3)c3ccccc3-c3ccccc32)cc1`, the TGI was 27.1 µM.

For the molecule `O=C(/C=C/c1ccc2c(c1)OCO2)CC(=O)C(=O)c1c[nH]c2ccccc12`, the TGI is above 100 µM.

As for `Cc1cc(O)c(/C=N/C(=S)NCc2ccccc2)c(=O)o1`, the TGI is above 100 µM.

The next assay relates to OVCAR-4 ovarian. Description: NCI-60 cell line screen, 48 h.
`O=C1NCCN1/N=C/c1c(Cl)n(-c2ccccc2)c2ccccc12` yielded a TGI of 76.2 µM.

Molecule `Cc1ccc(S(=O)(=O)N/N=C/C2(c3ccccc3)c3ccccc3-c3ccccc32)cc1` displayed a TGI of 24.3 µM.

Take `Cc1cc(O)c(/C=N/C(=S)NCc2ccccc2)c(=O)o1`: the TGI is above 100 µM.

Another assay deals with CAKI-1 renal. The assay can be described thus: NCI-60 cell line screen, 48 h.
The molecule `O=C1NCCN1/N=C/c1c(Cl)n(-c2ccccc2)c2ccccc12` gave a TGI of 51.7 µM.

In turn, `Cc1ccc(S(=O)(=O)N/N=C/C2(c3ccccc3)c3ccccc3-c3ccccc32)cc1` had a TGI of 62.4 µM.

`O=C(/C=C/c1ccc2c(c1)OCO2)CC(=O)C(=O)c1c[nH]c2ccccc12` yielded a TGI above 100 µM.

The molecule `Cc1cc(O)c(/C=N/C(=S)NCc2ccccc2)c(=O)o1` had a TGI above 100 µM.

Another assay has as its system OVCAR-8 ovarian. The assay can be described thus: NCI-60 cell line screen, 48 h.
Regarding `O=C1NCCN1/N=C/c1c(Cl)n(-c2ccccc2)c2ccccc12`, the TGI came to 44.8 µM.

Turning to `Cc1ccc(S(=O)(=O)N/N=C/C2(c3ccccc3)c3ccccc3-c3ccccc32)cc1`, the TGI was 31.5 µM.

The molecule `O=C(/C=C/c1ccc2c(c1)OCO2)CC(=O)C(=O)c1c[nH]c2ccccc12` registered a TGI above 100 µM.

Turning to `Cc1cc(O)c(/C=N/C(=S)NCc2ccccc2)c(=O)o1`, the TGI was above 100 µM.

In a further assay the test system is NCI-H522 lung. The assay can be described thus: NCI-60 cell line screen, 48 h.
`O=C1NCCN1/N=C/c1c(Cl)n(-c2ccccc2)c2ccccc12` returned a TGI of 44.4 µM.

`Cc1ccc(S(=O)(=O)N/N=C/C2(c3ccccc3)c3ccccc3-c3ccccc32)cc1` returned a TGI of 28.6 µM.

As to `O=C(/C=C/c1ccc2c(c1)OCO2)CC(=O)C(=O)c1c[nH]c2ccccc12`, the TGI is above 100 µM.

For the molecule `Cc1cc(O)c(/C=N/C(=S)NCc2ccccc2)c(=O)o1`, the TGI was above 100 µM.

The test system of another assay is HT29 colon. Description: NCI-60 cell line screen, 48 h.
The molecule `O=C1NCCN1/N=C/c1c(Cl)n(-c2ccccc2)c2ccccc12` had a TGI of 35.3 µM.

The molecule `Cc1ccc(S(=O)(=O)N/N=C/C2(c3ccccc3)c3ccccc3-c3ccccc32)cc1` gave a TGI of 26.3 µM.

On to `O=C(/C=C/c1ccc2c(c1)OCO2)CC(=O)C(=O)c1c[nH]c2ccccc12`, for which the TGI is above 100 µM.

The molecule `Cc1cc(O)c(/C=N/C(=S)NCc2ccccc2)c(=O)o1` yielded a TGI above 100 µM.

In the next assay the test system is IGROV1 ovarian. Description: NCI-60 cell line screen, 48 h.
Consider `O=C1NCCN1/N=C/c1c(Cl)n(-c2ccccc2)c2ccccc12`, for which the TGI was determined as 41.7 µM.

On to `Cc1ccc(S(=O)(=O)N/N=C/C2(c3ccccc3)c3ccccc3-c3ccccc32)cc1`, for which the TGI worked out at 23.5 µM.

Take `O=C(/C=C/c1ccc2c(c1)OCO2)CC(=O)C(=O)c1c[nH]c2ccccc12`: the TGI was above 100 µM.

Molecule `Cc1cc(O)c(/C=N/C(=S)NCc2ccccc2)c(=O)o1` registered a TGI above 100 µM.

Another assay relates to TK-10 renal. The assay can be described thus: NCI-60 cell line screen, 48 h.
In turn, `O=C1NCCN1/N=C/c1c(Cl)n(-c2ccccc2)c2ccccc12` gave a TGI of 43.6 µM.

`Cc1ccc(S(=O)(=O)N/N=C/C2(c3ccccc3)c3ccccc3-c3ccccc32)cc1` registered a TGI of 98.5 µM.

For `O=C(/C=C/c1ccc2c(c1)OCO2)CC(=O)C(=O)c1c[nH]c2ccccc12`, the TGI is above 100 µM.

`Cc1cc(O)c(/C=N/C(=S)NCc2ccccc2)c(=O)o1`: the TGI was above 100 µM.

The next assay relates to SN12C renal. Description: NCI-60 cell line screen, 48 h.
In turn, `O=C1NCCN1/N=C/c1c(Cl)n(-c2ccccc2)c2ccccc12` displayed a TGI of 40.2 µM.

`Cc1ccc(S(=O)(=O)N/N=C/C2(c3ccccc3)c3ccccc3-c3ccccc32)cc1` registered a TGI of 23.9 µM.

With `O=C(/C=C/c1ccc2c(c1)OCO2)CC(=O)C(=O)c1c[nH]c2ccccc12`, the TGI is above 100 µM.

The molecule `Cc1cc(O)c(/C=N/C(=S)NCc2ccccc2)c(=O)o1` had a TGI above 100 µM.

The subject of the next assay is OVCAR-3 ovarian. The assay can be described thus: NCI-60 cell line screen, 48 h.
In the case of `O=C1NCCN1/N=C/c1c(Cl)n(-c2ccccc2)c2ccccc12`, the TGI was above 100 µM.

Regarding `Cc1ccc(S(=O)(=O)N/N=C/C2(c3ccccc3)c3ccccc3-c3ccccc32)cc1`, the TGI stood at 20.8 µM.

With `O=C(/C=C/c1ccc2c(c1)OCO2)CC(=O)C(=O)c1c[nH]c2ccccc12`, the TGI was above 100 µM.

`Cc1cc(O)c(/C=N/C(=S)NCc2ccccc2)c(=O)o1`: the TGI was above 100 µM.

The next assay relates to SNB-19 CNS. Description: NCI-60 cell line screen, 48 h.
Molecule `O=C1NCCN1/N=C/c1c(Cl)n(-c2ccccc2)c2ccccc12` came in with a TGI of 56.9 µM.

Take `Cc1ccc(S(=O)(=O)N/N=C/C2(c3ccccc3)c3ccccc3-c3ccccc32)cc1`: the TGI came out at 73 µM.

The molecule `O=C(/C=C/c1ccc2c(c1)OCO2)CC(=O)C(=O)c1c[nH]c2ccccc12` displayed a TGI above 100 µM.

Regarding `Cc1cc(O)c(/C=N/C(=S)NCc2ccccc2)c(=O)o1`, the TGI was above 100 µM.

A further assay deals with KM12 colon. The assay can be described thus: NCI-60 cell line screen, 48 h.
`O=C1NCCN1/N=C/c1c(Cl)n(-c2ccccc2)c2ccccc12` returned a TGI of 34.2 µM.

`Cc1ccc(S(=O)(=O)N/N=C/C2(c3ccccc3)c3ccccc3-c3ccccc32)cc1` yielded a TGI of 20.2 µM.

`O=C(/C=C/c1ccc2c(c1)OCO2)CC(=O)C(=O)c1c[nH]c2ccccc12` had a TGI above 100 µM.

`Cc1cc(O)c(/C=N/C(=S)NCc2ccccc2)c(=O)o1` had a TGI above 100 µM.

In the next assay the test system is SNB-75 CNS. The assay can be described thus: NCI-60 cell line screen, 48 h.
`O=C1NCCN1/N=C/c1c(Cl)n(-c2ccccc2)c2ccccc12` returned a TGI of 55 µM.

The molecule `O=C(/C=C/c1ccc2c(c1)OCO2)CC(=O)C(=O)c1c[nH]c2ccccc12` displayed a TGI of 96.6 µM.

Consider `Cc1cc(O)c(/C=N/C(=S)NCc2ccccc2)c(=O)o1`, for which the TGI was above 100 µM.

The next assay deals with RXF 393 renal. Description: NCI-60 cell line screen, 48 h.
In turn, `Cc1ccc(S(=O)(=O)N/N=C/C2(c3ccccc3)c3ccccc3-c3ccccc32)cc1` showed a TGI of 27.3 µM.

Turning to `O=C(/C=C/c1ccc2c(c1)OCO2)CC(=O)C(=O)c1c[nH]c2ccccc12`, the TGI came to 96.6 µM.

In turn, `Cc1cc(O)c(/C=N/C(=S)NCc2ccccc2)c(=O)o1` yielded a TGI above 100 µM.

A further assay has as its system 786-0 renal. Description: NCI-60 cell line screen, 48 h.
As for `O=C1NCCN1/N=C/c1c(Cl)n(-c2ccccc2)c2ccccc12`, the TGI is 77 µM.
